From ChEMBL document CHEMBL3259687, “Synthesis and identification of chiral aminomethylpiperidine carboxamides as inhibitor of collagen induced platelet activation” (Eur J Med Chem, 2014)
pIC50: −log10 of the molar value. The source made the active and inactive calls. No cut-off for these calls is given here.

Assays:
[1] = system: Platelet; assay: Antiplatelet activity in human platelet-rich plasma assessed as inhibition of ristocetin-induced platelet aggregation treated for 5 mins prior to ristocetin challenge for 5 mins by turbidimetric method; format: functional, cell-free
[2] = system: Mus musculus; assay: Antithrombotic activity in mouse assessed as protection against collagen-epinephrine-induced pulmonary thromboembolism at 30 uM/kg, po administered 60 mins prior to thrombotic challenge measured for up to 18 hrs post-drug dose; format: functional, organism-based
[3] = system: Platelet; assay: Antiplatelet activity in human platelet-rich plasma assessed as inhibition of ADP-induced platelet aggregation treated for 5 mins prior to ADP challenge for 5 mins by turbidimetric method; format: functional, cell-free
[4] = system: Mus musculus; assay: Antithrombotic activity in mouse assessed as protection against collagen-epinephrine-induced pulmonary thromboembolism at 30 uM/kg, po administered 60 mins prior to thrombotic challenge measured at >18 hrs post-drug dose; format: functional, organism-based
[5] = system: Mus musculus; assay: Prolongation of bleeding time in mouse at 30 uM/kg, po administered as single dose by tail excision method; format: ADME, organism-based; settings: in vivo
[6] = Antiplatelet activity in human platelet-rich plasma assessed as inhibition of collagen-induced platelet aggregation at 30 uM treated for 5 mins prior to collagen challenge for 5 mins by turbidimetric method; format: functional
[7] = system: Platelet; assay: Antiplatelet activity in human platelet-rich plasma assessed as inhibition of TRAP-induced platelet aggregation treated for 5 mins prior to TRAP challenge for 5 mins by turbidimetric method; format: functional, cell-free
[8] = system: Mus musculus; assay: Prolongation of bleeding time in mouse at 30 uM/kg, po administered as single dose by tail excision method relative to control; format: ADME, organism-based; settings: in vivo
[9] = system: Mus musculus; assay: Antithrombotic activity in mouse assessed as protection against collagen-epinephrine-induced pulmonary thromboembolism at 30 uM/kg, po administered 60 mins prior to thrombotic challenge; format: functional
[10] = (§1) Antiplatelet activity in human platelet-rich plasma assessed as inhibition of collagen-induced platelet aggregation treated for 5 mins prior to collagen challenge for 5 mins by turbidimetric method; format: functional, cell-free; settings: for pIC50: Homo sapiens, Platelet, Plasma
[11] = Antiplatelet activity in human platelet-rich plasma assessed as inhibition of arachidonic acid-induced platelet aggregation treated for 5 mins prior to arachidonic acid challenge for 5 mins by turbidimetric method; format: functional, cell-free; settings: for pIC50: Homo sapiens, Platelet, Plasma
[12] = (§2) Antiplatelet activity in human platelet-rich plasma assessed as inhibition of U46619-induced platelet aggregation treated for 5 mins prior to U46619 challenge for 5 mins by turbidimetric method; format: functional, cell-free; settings: for pIC50: Homo sapiens, Platelet, Plasma
[13] = system: Platelet; assay: as §2; format: functional, cell-free
[14] = system: Platelet; assay: as §1; format: functional, cell-free
[15] = system: Mus musculus; assay: Prolongation of bleeding time in mouse at 170 uM/kg, po administered as single dose by tail excision method relative to control; format: ADME, organism-based; settings: in vivo
[16] = system: Mus musculus; assay: Antithrombotic activity in mouse assessed as protection against collagen-epinephrine-induced pulmonary thromboembolism at 170 uM/kg, po administered 60 mins prior to thrombotic challenge measured for up to 5 hrs post-drug dose; format: functional, organism-based
[17] = system: Mus musculus; assay: Antithrombotic activity in mouse assessed as protection against collagen-epinephrine-induced pulmonary thromboembolism at 170 uM/kg, po administered 60 mins prior to thrombotic challenge; format: functional
[18] = system: Mus musculus; assay: Antithrombotic activity in mouse assessed as protection against collagen-epinephrine-induced pulmonary thromboembolism at 30 uM/kg, po administered 60 mins prior to thrombotic challenge measured for up to 12 hrs post-drug dose; format: functional, organism-based
[19] = Antiplatelet activity in human platelet-rich plasma assessed as inhibition of collagen-induced platelet aggregation at 10 uM treated for 5 mins prior to collagen challenge for 5 mins by turbidimetric method; format: functional
[20] = system: Mus musculus; assay: Antithrombotic activity in mouse assessed as protection against collagen-epinephrine-induced pulmonary thromboembolism at 30 uM/kg, po administered 60 mins prior to thrombotic challenge measured for more than 24 hrs post-drug dose; format: functional, organism-based
[21] = system: Platelet; assay: Antiplatelet activity in human platelet-rich plasma assessed as inhibition of CRP-XL-induced platelet aggregation up to 500 uM treated for 5 mins prior to CRP-XL challenge for 5 mins by turbidimetric method; format: functional, cell-free
[22] = system: Platelet; assay: Antiplatelet activity in human platelet-rich plasma assessed as inhibition of convulxin-induced platelet aggregation treated for 5 mins prior to convulxin challenge for 5 mins by turbidimetric method; format: functional, cell-free

SMILES | Activity [5] [%] | pIC50 [10] | pIC50 [11] | pIC50 [12] | inhibition [1] | inhibition [3] | inhibition [7] | Activity [9] [%] | inhibition (INH) [11] [%] | inhibition (INH) [12] [%] | inhibition [13] | inhibition (INH) [10] [%] | inhibition [14] | also measured
Cc1ccc(CN2C(=O)CC[C@H]2C(=O)N2CCCC(CNC(=O)OC(C)(C)C)C2)cc1 (mixture of isomers) | 50 | 4.80 |  |  | inactive | inactive | inactive | 60 |  |  |  |  |  | Activity [2]: Active; Activity [4]: inactive; inhibition at 30 µM [6]: 77.3%; fold change (FC) [8]: 1.5
Cc1ccc(CN2CSC[C@H]2C(=O)N2CCC[C@@H](CNC(=O)OC(C)(C)C)C2)cc1 | 50 | 5.10 | < 4.00 | 5.33 | inactive | inactive | inactive | 50 | 25 | 96 | Dose-dependent effect | 74 | Dose-dependent effect | 
Cc1ccc(CN2C(=O)CC[C@H]2C(=O)N2CCC[C@H](CNC(=O)OC(C)(C)C)C2)cc1 |  | 4.43 |  |  | inactive | inactive | inactive | 50 |  |  |  |  |  | Activity [18]: Active; inhibition at 10 µM [19]: 30%
Cc1ccc(CN2C(=O)CC[C@H]2C(=O)N2CCC[C@@H](CNC(=O)OC(C)(C)C)C2)cc1 |  | 5.18 |  |  | inactive | inactive | inactive | 60 |  |  |  |  |  | Activity [20]: Active; inhibition [21]: Active; inhibition at 10 µM [19]: 49%; inhibition [22]: inactive

The next lines start with results.

Activity [5] [%] | pIC50 [10] | pIC50 [11] | pIC50 [12] | SMILES | inhibition [1] | inhibition [3] | inhibition [7] | Activity [9] [%] | inhibition (INH) [11] [%] | inhibition (INH) [12] [%] | inhibition [13] | inhibition (INH) [10] [%] | inhibition [14] | also measured
43 | 5.19 | < 4.00 | 5.19 | Cc1ccc(CN2C(=O)SC[C@H]2C(=O)N2CCC[C@@H](CNC(=O)OC(C)(C)C)C2)cc1 | inactive | inactive | inactive | 40 | 15 | 75 | Dose-dependent effect | 81 | Dose-dependent effect | 
50 | 5.22 | < 4.00 | 4.99 | Cc1ccc(CN2C(=O)SC[C@H]2C(=O)N2CCC[C@H](CNC(=O)OC(C)(C)C)C2)cc1 | inactive | inactive | inactive | 50 | 8 | 64 | Dose-dependent effect | 83 | Dose-dependent effect | 
 |  | 5.30 |  | CC(=O)Oc1ccccc1C(=O)O [ASPIRIN] |  |  |  |  |  |  |  |  |  | fold change (FC) [15]: 2.2; Activity [16]: Active; Activity [17]: 40%
